Source: patent US9932332B2, “FXR (NR1H4) modulating compounds” (Gilead Sciences, Inc., priority 2016, dated 2018)
pEC50: −log10 of the molar value.

Target: FXR ligand binding domain (Homo sapiens (Human), UniProt Q96RI1)
Experiment: Mammalian one hybrid (M1H) Gal4 reporter gene assay in HEK293 cells
Format: cell-based
Conditions: Gal4-FXR-LBD luciferase reporter, 16 h incubation
Protocol: Determination of a ligand mediated Gal4 promoter driven transactivation to quantify ligand binding mediated activation of FXR was performed as follows: The cDNA part encoding the FXR ligand binding domain was cloned into vector pCMV-BD (Stratagene) as a fusion to the yeast GAL4 DNA binding domain under the control of the CMV promoter. The amino acid boundaries of the ligand binding domain were amino acids 187-472 of Database entry NM_005123 (RefSeq). The plasmid pFR-Luc (Stratagene) was used as the reporter plasmid, containing a synthetic promoter with five tandem repeats of the yeast GAL4 binding sites, driving the expression of the Photinus pyralis (American firefly) luciferase gene as the reporter gene. In order to improve experimental accuracy the plasmid pRL-CMV (Promega) was cotransfected. pRL-CMV contains the constitutive CMV promoter, controlling the expression of the Renilla reniformis luciferase. […] Cells were incubated for additional 16 h before firefly and renilla luciferase activities were measured sequentially in the same cell extract using a Dual-Light-Luciferase-Assay system (Dyer et al., Anal. Biochem. 2000, 282, 158-161). […]

Sequence of FXR ligand binding domain (Q96RI1 other isoform, or with tags, fused parts or gaps): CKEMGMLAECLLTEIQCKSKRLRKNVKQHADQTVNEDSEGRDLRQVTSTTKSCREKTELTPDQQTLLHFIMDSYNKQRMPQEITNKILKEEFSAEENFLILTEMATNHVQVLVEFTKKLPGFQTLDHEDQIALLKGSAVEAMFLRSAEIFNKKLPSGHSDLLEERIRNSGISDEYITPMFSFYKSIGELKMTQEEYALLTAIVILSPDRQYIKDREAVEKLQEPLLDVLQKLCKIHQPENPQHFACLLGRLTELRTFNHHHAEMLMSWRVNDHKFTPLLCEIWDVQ

Row | SMILES | pEC50
1 | O=C(O)c1ccc2nc(C3(O)C4COCC3CC(OCc3c(-c5c(Cl)cccc5Cl)noc3C3CC3)C4)sc2c1 [Example 2, 2-((1R,5S,9S)-7-((5-Cyclopropyl-3-(2,6-dichlorophenyl)isoxazol-4-yl)methoxy)-9-hydroxy-3-oxabicyclo[3.3.1]nonan-9-yl)benzo[d]thiazole-6-carboxylic acid] | 6.76
2 | O=C(O)c1cc(F)c2nc(C3(O)C4COCC3CC(OCc3c(-c5c(Cl)cccc5Cl)noc3C3CC3)C4)sc2c1 [Example 1, 2-((1R,5S,9S)-7-((5-Cyclopropyl-3-(2,6-dichlorophenyl)isoxazol-4-yl)methoxy)-9-hydroxy-3-oxabicyclo[3.3.1]nonan-9-yl)-4-fluorobenzo[d]thiazole-6-carboxylic acid] | 6.67
